Here are results for four compounds from patent US20170209346A1, “SHAPED CELLULOSE BODIES WITH PHYSIOLOGICALLY ACTIVE MINERAL SUBSTANCES DISTRIBUTED THEREIN” (smartpolymer GmbH, priority 2014, published 2017).

Read-outs that look alike come from different tables or passages of the source.

For data set [1] the following is noted: literature data, cited from earlier work.
A short description of data set [2]: Solubility of mineral compounds in water. The following applies: at 20° C.; chemically pure material used in Example 1. The text has this: The mineral compounds contain at least one mineral from the group consisting of sodium, potassium, calcium and magnesium and zinc. […] Water solubility is a prerequisite for the activity of the mineral compounds used, since corresponding anions and cations can thus be released.
This reported solubility is based on literature data. This list in no way restricts the actual multiplicity of possible mineral compounds having the required properties.

As to `[O]=[Zn]` [Zinc oxide], in data set [1] (29° C.), the solubility in water was 1.6 µg/mL.
As to `[O]=[Mg]` [type 1 magnesium oxide, magnesium oxide], the solubility in water in data set [2] was 12.5 µg/mL.
On to `[O]=[Mg]` [Magnesium oxide], for which the solubility in water in data set [1] (temperature not given) was 12 µg/mL.
On to Hydroxylapatite, for which the solubility in water in data set [1] (20° C.) is 6.57 µg/mL.
